The data set is described as follows: Solubilization test of Poloxamer 188/407 to Aspirin in ethanol. In kind it is physicochemical. Conditions: for Amount Dissolved: 10 ml, room temperature (30° C.). As for the experimental part:
(1) 0%,10%, 20%, 30%, 40% (m/v) of Poloxamer 188/407 anhydrous ethanol solution were prepared respectively,10 ml of each solution was added into five sealed centrifuge tubes respectively (each centrifuge tube was numbered accordingly).
(2) Each centrifuge tube was added with adequate amount of Aspirin based on the pre-test data (please refer to Table 1: 0 h data), and shaken to dissolution at room temperature (30° C.).
0.1 g of Aspirin would be added into the tube when complete dissolution was observed, then sealed and continued shaking. In cases which the drug was not dissolved, the previous amount of drug dissolved would be recorded as the maximum amount needed for dissolution.
(4) Dissolution observation was continued until some amount of drug compound could not be dissolved.
(5) The observation of each tube was recorded in Table 1

SMILES strings stand for the structures.

For the compound `CC(=O)Oc1ccccc1C(=O)O` [Aspirin, acetylsalicylic acid], the “Solubilization Rate” value came out at 0% (Poloxamer 188 0%); 12% (Poloxamer 188 10%); 20% (Poloxamer 188 20%); 24% (Poloxamer 188 30%); 28% (Poloxamer 188 40%); 0% (Poloxamer 407 0%). Moreover, the “Solubilization Rate” value by setting is: (Poloxamer 407 10%) 12%; (Poloxamer 407 20%) 20%; (Poloxamer 407 30%) 24%; (Poloxamer 407 40%) 28%. Also, the “Amount Dissolved” value runs as follows: (Poloxamer 188 0% (m/v) in anhydrous ethanol) 2.50 g; (Poloxamer 188 10% (m/v) in anhydrous ethanol) 2.80 g; (Poloxamer 188 20% (m/v) in anhydrous ethanol) 3.00 g; (Poloxamer 188 30% (m/v) in anhydrous ethanol) 3.10 g; (Poloxamer 188 40% (m/v) in anhydrous ethanol) 3.20 g; (Poloxamer 407 0% (m/v) in anhydrous ethanol) 2.50 g. The “Amount Dissolved” value runs as follows: (Poloxamer 407 10% (m/v) in anhydrous ethanol) 2.80 g; (Poloxamer 407 20% (m/v) in anhydrous ethanol) 3.00 g; (Poloxamer 407 30% (m/v) in anhydrous ethanol) 3.10 g; (Poloxamer 407 40% (m/v) in anhydrous ethanol) 3.20 g. Moreover, for the setting “Poloxamer 188 and 407 anhydrous ethanol”, the “solubility of Aspirin” value was “increases with Poloxamer concentration”.
